Where “and” joins values, the source holds several entries; their conditions need not be identical. Equal values may be shown once. ± gives the expanded uncertainty stated by the source.
Settings: for mass density: Fluid (supercritical or subcritical phases), Buoyancy - hydrostatic balance with magnetic suspension - two sinkers; for vapor or sublimation pressure: Liquid, Closed cell

C=C(F)C(F)(F)F [2,3,3,3-tetrafluoro-1-propene]
Settings	mass density [kg/m3]
232.01 K, 1003.6 kPa	1297.66 ± 0.16
235.01 K, 1354.4 kPa	1290.57 ± 0.16
240.01 K, 1309.7 kPa	1276.93 ± 0.16
240.01 K, 5597.9 kPa	1288.72 ± 0.16
245 K, 5368.7 kPa	1275.09 ± 0.16
250 K, 2009.3 kPa	1251.5 ± 0.16
250 K, 9475.2 kPa	1273.53 ± 0.16
255 K, 5782.7 kPa	1249.79 ± 0.16
260 K, 1001.4 kPa	1219.36 ± 0.16
260 K, 9586.2 kPa	1248.32 ± 0.16
265 K, 3824.7 kPa	1215.48 ± 0.15
270 K, 1753.3 kPa	1192.46 ± 0.15
270 K, 7264.8 kPa	1214.11 ± 0.16
275 K, 4931.1 kPa	1190.99 ± 0.15
280 K, 1780.9 kPa	1161.43 ± 0.15
280 K, 8123.4 kPa	1189.71 ± 0.15
285 K, 4675.9 kPa	1160.07 ± 0.15
290 K, 1604.8 kPa	1127.36 ± 0.15
290 K, 7579.1 kPa	1158.85 ± 0.15
295 K, 4198.6 kPa	1126 ± 0.15
300 K, 1079.2 kPa	1087.77 ± 0.14
300 K, 6812.1 kPa	1124.85 ± 0.15
305 K, 3364.3 kPa	1086.43 ± 0.14
309.99 K, 5673.9 kPa	1085.35 ± 0.14
310 K, 1004 kPa	1047.05 ± 0.14
314.99 K, 2511.7 kPa	1041.01 ± 0.14
319.99 K, 553.9 kPa	26.402 ± 0.006
320 K, 973.2 kPa	51.726 ± 0.009
320 K, 4518 kPa	1040.05 ± 0.14
325 K, 1456.3 kPa	982.689 ± 0.13
329.99 K, 574 kPa	26.306 ± 0.006
330 K, 979.2 kPa	49.047 ± 0.009
330 K, 985.9 kPa	49.464 ± 0.009
330 K, 3108.2 kPa	981.791 ± 0.13
335 K, 1592.5 kPa	92.726 ± 0.014
335 K, 1798 kPa	932.524 ± 0.12
335 K, 4770.8 kPa	980.976 ± 0.13
340 K, 593.8 kPa	26.211 ± 0.006
340 K, 980.9 kPa	46.55 ± 0.008
340 K, 993.5 kPa	47.298 ± 0.008
340 K, 1640.5 kPa	92.612 ± 0.014
340 K, 1827.8 kPa	110.941 ± 0.017
340 K, 3191.5 kPa	931.599 ± 0.12
345 K, 4594.1 kPa	930.707 ± 0.12
350 K, 613.2 kPa	26.12 ± 0.006
350 K, 985.9 kPa	44.652 ± 0.008
350 K, 1003 kPa	45.555 ± 0.008
350 K, 1736.8 kPa	92.623 ± 0.014
350 K, 2261.9 kPa	146.58 ± 0.021
350 K, 2461 kPa	839.342 ± 0.11
350 K, 6005.4 kPa	929.873 ± 0.12
355 K, 2740.3 kPa	801.182 ± 0.11
360 K, 632.4 kPa	26.029 ± 0.006
360 K, 987.2 kPa	42.763 ± 0.008
360 K, 1005.2 kPa	43.637 ± 0.008
360 K, 1830.5 kPa	92.622 ± 0.014
360 K, 2067 kPa	110.845 ± 0.017
360 K, 2433.6 kPa	146.594 ± 0.021
360 K, 2545.4 kPa	160.529 ± 0.023
360 K, 2767.9 kPa	197.534 ± 0.028
360 K, 3210.5 kPa	772.483 ± 0.1
360 K, 3638.8 kPa	800.559 ± 0.11
362 K, 2963.7 kPa	235.115 ± 0.033
365 K, 991.9 kPa	42.073 ± 0.008
365 K, 1876.6 kPa	92.619 ± 0.014
365 K, 2516.7 kPa	146.549 ± 0.022
365 K, 2892.6 kPa	197.483 ± 0.028
365 K, 3086.7 kPa	243.237 ± 0.034
365 K, 4553.7 kPa	799.933 ± 0.11
368 K, 3184.3 kPa	243.231 ± 0.034
370 K, 651.2 kPa	25.938 ± 0.006
370 K, 993.7 kPa	41.326 ± 0.008
370 K, 996.3 kPa	41.436 ± 0.008
370 K, 2181.6 kPa	110.789 ± 0.017
370 K, 2598.5 kPa	146.499 ± 0.022
370 K, 2866.8 kPa	176.561 ± 0.026
370 K, 3014.9 kPa	197.482 ± 0.028
370 K, 3248.6 kPa	243.253 ± 0.034
370 K, 3252.2 kPa	244.129 ± 0.035
370 K, 5480.7 kPa	799.34 ± 0.11
370.01 K, 1920.5 kPa	92.497 ± 0.014
380 K, 667.9 kPa	25.765 ± 0.006
380 K, 994.8 kPa	39.809 ± 0.007
380 K, 2293.9 kPa	110.737 ± 0.017
380 K, 3047.3 kPa	173.864 ± 0.025
380 K, 3496.1 kPa	231.99 ± 0.033
380 K, 6583.2 kPa	770.356 ± 0.1
390 K, 670.7 kPa	25.062 ± 0.006
390 K, 987.8 kPa	38.088 ± 0.007
390 K, 2404.1 kPa	110.68 ± 0.017
400 K, 683.2 kPa	24.785 ± 0.006
400 K, 991.4 kPa	36.952 ± 0.007
400 K, 2512.9 kPa	110.64 ± 0.017

Settings	vapor or sublimation pressure
250 K	133.03 ± 0.07 kPa and 133.37 ± 0.07 kPa
260 K	197.44 ± 0.08 kPa
270 K	283.41 ± 0.08 kPa and 283.03 ± 0.08 kPa and 283.48 ± 0.08 kPa
280 K	395.91 ± 0.1 kPa
290 K	538.95 ± 0.11 kPa and 539.38 ± 0.11 kPa and 539.42 ± 0.11 kPa
300 K	718.68 ± 0.12 kPa
309.99 K	938.57 ± 0.15 kPa
310 K	939.28 ± 0.15 kPa and 939.3 ± 0.15 kPa
312 K	989.09 ± 0.15 kPa
314 K	1040.9 ± 0.15 kPa
316 K	1094.4 ± 0.16 kPa
319.99 K	1206.8 ± 0.17 kPa and 1207 ± 0.17 kPa and 1206.4 ± 0.17 kPa
320 K	1207.6 ± 0.17 kPa and 1207.7 ± 0.17 kPa
330 K	1529 ± 0.19 kPa
340 K	1910.2 ± 0.23 kPa
350 K	2361.4 ± 0.26 kPa
355 K	2616.5 ± 0.29 kPa
360 K	2893.8 ± 0.31 kPa
362 K	3011.5 ± 0.32 kPa
364 K	3133.6 ± 0.34 kPa
366 K	3260.2 ± 0.34 kPa
